# Results: patent publication US20080262228A1, “Metabolites of 5-fluoro-8- quinoline and methods of preparation and uses thereof” (Wyeth, priority 2006, published 2008)
# Key:
# [1] = In vivo metabolism of [14C]COMPOUND I in Sprague-Dawley rats, single oral 5 mg/kg dose; set-up: species or system rat; conditions: for Chromatographic Distribution of Radioactivity in Pooled Plasma Samples: 5 mg/kg oral [14C]COMPOUND I
# Protocol: Dose preparation, animal dosing, and specimen collection were performed at Wyeth Research, Collegeville, Pa. The vehicle contained 2% (w/v) polysorbate 80, NF and 0.5% (w/v) methylcellulose (4000 cps) in water. [^14C]COMPOUND I trisuccinate salt (36.6 mg) and non-labeled COMPOUND I trisuccinate salt (26.7 mg) were dissolved in 1 mL of ethanol and suspended in 35 mL of the vehicle with stirring. The target [^14C]COMPOUND I concentration was approximately 1 mg/mL as free base and 70 μCi/mL with a target specific activity of 70 μCi/mg. Three pre- and post-dose aliquots (100 μL) were taken for the determination of radiochemical purity, drug and radioactivity concentrations and specific activity (see below).
# Male rats weighing from 323 to 354 g and female rats weighing from 270 to 317 g at the time of dosing were purchased from Charles River Laboratories (Wilmington, Mass.). Non-fasted rats were given a single 5 mg/kg (˜350 μCi/kg) dose of [^14C]COMPOUND I at a volume of 5.0 mL/kg via intragastric gavage. Three rats were dosed for each time point. Animals were provided Purina rat chow and water ad libitum, and were kept individually in metabolism cages.
# Blood samples were collected at 1, 3, 6 and 24 hr from male rats and at 1 and 3 hr from female rats after dose administration by cardiac puncture into tubes containing EDTA as the anticoagulant and placing them on ice. Triplicate aliquots (50 μL) of whole blood were removed and plasma was immediately obtained from the remaining blood by centrifugation at 4° C. Whole brain samples were collected after saline perfusion at 1, 3, 6 and 24 hr post-dose from male rats and at 1 and 3 hr post-dose from female rats. Urine samples were collected on dry ice from male rats at intervals of 0-6 and 6-24 hr post-dose. Feces were collected from male rats at 0-24 hr post-dose at room temperature. The biological specimens and aliquots of the dose suspension were stored at approximately −70° C. until analysis.
# Triplicate aliquots of diluted dose (20 μL), dose fractions (10 μL), and plasma (50 μL) and urine (100 μL) from individual rats were analyzed for radioactivity concentrations. Radioactivity determinations were made with a Tri-Carb Model 3100 TR liquid scintillation counter (LSC) (Perkin Elmer) using 5 mL of Ultima Gold as the scintillation fluid.
# Brain and fecal samples from individual rats were weighed and homogenized in water at a volume-to-weight ratio of about 3:1 and 5:1, respectively, with a Polytron PT homogenizer at ice-cold temperature. Duplicate aliquots of blood (50 μL), brain homogenates (0.2 g) and fecal homogenates (0.2 g) were placed on Combusto-cones with Combusto-pads and allowed to dry overnight. Samples were combusted with a model 307 Tri-Carb Sample Oxidizer, equipped with an Oximate-80 Robotic Automatic Sampler (Perkin Elmer). The liberated ^14CO2 was trapped with Carbo-Sorb E carbon dioxide absorber, mixed with PermaFluor® E^+ liquid scintillation cocktail, and counted in a Tri-Carb Model 3100 TR/LL liquid scintillation counter (Perkin Elmer).
# Plasma samples were pooled by equal volumes from three animals at each time point (1, 3, 6 and 24 hr for males; 1 and 3 hr for females). Aliquots of 2 mL of pooled plasma were mixed with 2 mL of acetonitrile, placed on ice for about 10 min, and then centrifuged at 4° C. The supernatant was transferred to a clean tube. The protein pellets were extracted two more times with 4 mL of acetonitrile. The supernatants from precipitation and extraction of each sample were pooled, mixed, and evaporated at 22° C. under nitrogen in a TurboVap LV evaporator (Caliper Life Sciences, Hopkinton, Mass.) to about 1.0 mL. The concentrated extract was centrifuged, the supernatant volume measured and the extraction efficiency was determined by analyzing duplicate 10 μL aliquots for radioactivity concentrations.
# [2] = Metabolite profiling in liver microsomes and S9; format: in vitro ADME, rat, dog, monkey, human; conditions: liver microsomes and S9, 10 μM COMPOUND I, 30 min; species letters not defined
# Protocol: Microsomal incubations for metabolite profiling were similar to those described above for intrinsic clearance determination (see Table 1). Aliquots of COMPOUND I (10 μL), dissolved in DMSO:methanol (1:9), were added to a 96-well plate containing phosphate buffer, and MgCl2 and the liver microsomes at 37° C. using the same automation apparatus as for the stability study described hereinabove. The reactions were initiated by the addition of the UDPGA and NADPH generating system. The final incubation volume for all samples was 1 mL and the length of incubation was 30 min. […] Three 250 μL aliquots were transferred to a 96-well plate containing 900 μL acetonitrile to precipitate the protein. […] The samples were then reconstituted in 150 μL of 20% methanol in water. The three aliquots for each sample were pooled and analyzed by LC/MS.
# S9 incubation buffer and cofactors were chosen to allow N-acetylation and carbamoyl glucuronidation in addition to oxidative and glucuronidation pathways possible in liver microsomes. Incubations of sulfamethazine and SCA-136 with liver S9 were used as positive controls for N-acetylation and carbamoyl glucuronidation, respectively. Following a 30 min. incubation, 750 μL from each sample were added to 900 μL acetonitrile. Following centrifugation and evaporation of the supernatant, the samples were reconstituted in 450 μL of 20% methanol in water for analysis by HPLC/UV and LC/MS (see below).
# The HPLC system used for mass spectrometric analysis was an Agilent 1100 HPLC (Agilent Technologies, Palo Alto, Calif.) equipped with a binary pump and a diode array UV detector. The UV detector was set to monitor 190-400 nm. Separations were accomplished on a Luna C18 column (150×2.1 mm, 5 μm) (Phenomenex Incorporated, Torrance, Calif.).
# The mass spectrometer used for metabolite characterization was a Finnigan LCQ Deca ion trap mass spectrometer (Thermo Electron Corp.). […] Full scan and data dependent MS2 and MS3 mass spectra were recorded. Finnigan Xcalibur software (version 1.3) was used for control of equipment and recording of data from UV and LC/MS analyses.
# Chromatographic profiles of COMPOUND I (10 μM) metabolites in incubations with liver microsomes in the presence of NADPH are presented in FIG. 1. Chromatographic profiles of COMPOUND I (10 μM) metabolites in incubations with liver microsomes in the presence of NADPH and UDPGA are presented in FIG. 2. Chromatographic profiles of COMPOUND I (10 μM) metabolites in incubations with liver S9 in the presence of NADPH, UDPGA and acetyl coenzyme A (CoA) are presented in FIG. 3. In incubations containing NADPH, UDPGA and acetyl CoA, fourteen Phase I metabolites (M1, M6, M8, M12, M13, M14, M15, M16, M17, M18, M20, M21, M22 and M23) and six Phase II metabolites (M2, M3, M5, M7, M9 and M10) were observed. In incubations without cofactors, no metabolites were observed.
# LC/MS analysis was conducted on extracts of mouse, rat, monkey and human liver microsomes and S9. The mass spectral data for the characterized COMPOUND I metabolites are discussed below.
# [3] = Metabolite characterization in cryopreserved hepatocytes; conditions: hepatocyte incubations, 20 μM; R, rat; D, dog; H, human; Media = decomposition product observed in media control
# Protocol: Pooled male rat, dog, and mixed male and female human cryopreserved hepatocytes were used in this study. The cryopreserved hepatocytes (two vials from each species; three to five million viable cells per vial) were thawed in a 37° C. water bath with gentle shaking until the ice was almost melted. The suspensions from the two individual vials of the same species were immediately transferred to a 50 mL centrifuge tube containing pre-warmed thawing media at 37° C. with gentle handshaking to prevent the cells from settling. The cell suspension was centrifuged at 50 g for 5 min at 4° C. Supernatants were discarded and the pellets were resuspended in pre-warmed incubation media (8 mL) at 37° C. […] [^14C]COMPOUND I (20 μM) was incubated in a 12-well plate containing hepatocyte suspensions at 1.0 mL per well in duplicate (≧1 million viable cells/well) at 37° C. for 1 or 4 hr in the presence of 5% CO2:95% O2. Control incubations without hepatocytes were also run under the same conditions. Positive controls containing [^14C]7-ethoxycoumarin (100 μM) were also incubated under the same conditions, but only for 1 hr. At the end of the incubations, reactions were stopped by adding acetonitrile with 2% acetic acid (1 mL), mixed for 10 min, followed by centrifugation at 4000 rpm for 10 min at 4° C. Aliquots (50 μL) of supernatants were analyzed by HPLC with UV and radioactivity flow detection for metabolite profiling, and by LC/MS for metabolite identification as described in below. To determine extraction recovery, aliquots (20 μL) of supernatants were analyzed for radioactivity content utilizing a Packard Tri-Carb Model 3100 TR liquid scintillation counter and 5 mL of Ultima Gold.
# The HPLC system used for mass spectrometric analysis was a Waters Alliance model 2695 HPLC system (Waters Corp). It was equipped with a built-in autosampler and a model 996 diode array UV detector. The UV detector was set to monitor 210-400 nm. The HPLC conditions were the same as those described hereinabove with the following exceptions. […]
"Chromatographic Distribution of Radioactivity in Pooled Plasma Samples ([1]; female rats, 1 hr) [%]","Chromatographic Distribution of Radioactivity in Pooled Plasma Samples ([1]; female rats, 3 hr) [%]","percent of total plasma radioactivity ([1]; male and female rats, range over time points, 5 mg/kg oral)","Chromatographic Distribution of Radioactivity in Pooled Plasma Samples ([1]; male rats, 1 hr) [%]","Chromatographic Distribution of Radioactivity in Pooled Plasma Samples ([1]; male rats, 3 hr) [%]","Chromatographic Distribution of Radioactivity in Pooled Plasma Samples ([1]; male rats, 6 hr) [%]",Species (in which the metabolite was characterized) [2],Source [3],Compound
9.6,16.2,9.6-17.1%,15.2,17.1,16.5,"R, D, M, H",,"COc1cc(N2CCN(C3CCN(c4ccc(OC5OC(C(=O)O)C(O)C(O)C5O)c5cccnc45)CC3)CC2)c2ncccc2c1 (stereo not drawn) [Metabolite M5, Hydroxy desfluoro COMPOUND I glucuonide]"
,,,,,,"R, D, M, H","D (trace), H","COc1cc(N2CCN(C3CCN(c4ccc(O)c5cccnc45)CC3)CC2)c2ncccc2c1 [Metabolite M18, Hydroxy desfluoro COMPOUND I]"
